Drawing on patent US11180474B2 (BRISTOL-MYERS SQUIBB COMPANY, priority 2016, dated 2021), this text covers IC50 for 11 compounds.

For one assay, the target named is T1, human TLR7 (Homo sapiens, UniProt Q9NYK1).
T1 construct: host or cells: HEK-Blue cells
T1 sequence (Q9NYK1 27-1049): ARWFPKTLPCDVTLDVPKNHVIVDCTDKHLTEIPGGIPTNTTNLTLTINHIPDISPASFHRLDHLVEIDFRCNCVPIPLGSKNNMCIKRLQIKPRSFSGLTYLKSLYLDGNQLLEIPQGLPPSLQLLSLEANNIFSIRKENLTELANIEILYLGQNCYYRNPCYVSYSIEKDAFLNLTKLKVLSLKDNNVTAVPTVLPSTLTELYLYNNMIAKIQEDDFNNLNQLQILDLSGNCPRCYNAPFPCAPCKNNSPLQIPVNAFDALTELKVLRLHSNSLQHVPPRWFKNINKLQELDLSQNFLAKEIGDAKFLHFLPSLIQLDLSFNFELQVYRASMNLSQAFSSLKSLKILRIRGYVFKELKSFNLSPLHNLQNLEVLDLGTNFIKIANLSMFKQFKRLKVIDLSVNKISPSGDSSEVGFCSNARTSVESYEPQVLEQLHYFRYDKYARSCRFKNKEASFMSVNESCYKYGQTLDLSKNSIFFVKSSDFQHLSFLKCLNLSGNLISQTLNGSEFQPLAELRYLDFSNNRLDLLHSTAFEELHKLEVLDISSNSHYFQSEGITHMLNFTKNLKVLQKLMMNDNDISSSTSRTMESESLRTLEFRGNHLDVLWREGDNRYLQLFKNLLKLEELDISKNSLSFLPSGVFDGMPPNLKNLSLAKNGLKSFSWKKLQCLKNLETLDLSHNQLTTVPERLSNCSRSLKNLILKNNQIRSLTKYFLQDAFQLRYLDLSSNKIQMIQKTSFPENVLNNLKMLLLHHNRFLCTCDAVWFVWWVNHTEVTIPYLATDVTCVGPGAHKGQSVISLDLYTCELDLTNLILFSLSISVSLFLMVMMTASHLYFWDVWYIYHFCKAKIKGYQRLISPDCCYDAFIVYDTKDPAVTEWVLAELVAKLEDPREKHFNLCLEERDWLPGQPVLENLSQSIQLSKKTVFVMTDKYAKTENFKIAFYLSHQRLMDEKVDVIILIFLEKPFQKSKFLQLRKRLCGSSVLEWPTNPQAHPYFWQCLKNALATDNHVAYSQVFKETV
In words: TLR7 inhibition reporter assay (HEK-Blue cells, SEAP reporter, gardiquimod stimulation). It is filed as cell-based. The conditions noted are these: HEK-Blue cells overexpressing human TLR7, gardiquimod 7.5 μM. The method, boiled down: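 22 h, 37° C, 5% CO2 incubation; compounds 0.05 nM-50 μM final; TLR7 cells 15000/well, TLR8 20,000/well. Readout: SEAP via HEK-Blue Detection medium. % inhibition = signal reduction versus agonist + DMSO wells, referenced to known inhibitor.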
On the technique in general: In a reporter assay the amount or activity of a reporter protein is the signal.

A further assay addresses T2, human TLR9 (Homo sapiens, UniProt Q9NR96).
T2 construct: host or cells: HEK-Blue cells
T2 sequence (Q9NR96 26-1032): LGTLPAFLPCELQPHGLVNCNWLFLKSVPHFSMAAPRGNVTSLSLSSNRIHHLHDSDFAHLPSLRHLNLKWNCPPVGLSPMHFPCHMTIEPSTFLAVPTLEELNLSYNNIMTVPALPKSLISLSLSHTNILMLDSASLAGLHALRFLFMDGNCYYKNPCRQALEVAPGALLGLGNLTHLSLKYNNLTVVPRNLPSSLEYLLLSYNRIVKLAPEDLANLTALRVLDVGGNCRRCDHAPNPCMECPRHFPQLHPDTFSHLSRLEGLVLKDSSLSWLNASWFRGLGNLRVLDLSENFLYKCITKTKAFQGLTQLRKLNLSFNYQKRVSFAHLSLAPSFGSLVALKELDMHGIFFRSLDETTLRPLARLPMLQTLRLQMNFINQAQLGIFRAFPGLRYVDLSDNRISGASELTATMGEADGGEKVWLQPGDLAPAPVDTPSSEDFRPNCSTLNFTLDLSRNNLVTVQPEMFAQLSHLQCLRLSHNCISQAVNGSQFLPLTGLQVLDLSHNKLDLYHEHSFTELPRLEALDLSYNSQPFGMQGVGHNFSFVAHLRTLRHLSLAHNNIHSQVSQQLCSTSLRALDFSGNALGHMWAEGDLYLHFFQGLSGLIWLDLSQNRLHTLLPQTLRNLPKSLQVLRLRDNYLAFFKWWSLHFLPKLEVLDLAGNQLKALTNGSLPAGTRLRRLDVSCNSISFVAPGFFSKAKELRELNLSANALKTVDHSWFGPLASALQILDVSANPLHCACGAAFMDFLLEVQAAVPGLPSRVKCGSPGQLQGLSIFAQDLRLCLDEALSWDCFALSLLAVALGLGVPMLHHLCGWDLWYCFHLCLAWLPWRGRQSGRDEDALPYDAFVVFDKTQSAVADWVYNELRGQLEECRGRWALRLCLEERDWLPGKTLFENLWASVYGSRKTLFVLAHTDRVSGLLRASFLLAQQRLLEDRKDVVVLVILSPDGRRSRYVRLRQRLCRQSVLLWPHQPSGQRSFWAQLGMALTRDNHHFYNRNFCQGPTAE
In words: TLR9 inhibition reporter assay (HEK-Blue cells, SEAP reporter, ODN2006 stimulation). The conditions noted are these: HEK-Blue cells overexpressing human TLR9, ODN2006 5 nM. In kind it is cell-based. The method, boiled down: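 Compound treatment: 30 min, RT, 0.05 nM–50 μM final. Agonist: TLR7 gardiquimod 7.5 μM; TLR8 R848 15.9 μM; TLR9 ODN2006 5 nM. Incubation 22 h, 37 °C, 5% CO2. Readout SEAP, HEK-Blue Detection.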

Where a name gives a salt, the structure may show the parent alone.

On to `CCN(CC)C(=O)C1CCCN(CC(=O)N2CCC(c3ccc4[nH]c(-c5ccc(OC)c(OC)c5)c(C5CCOCC5)c4c3)CC2)C1` (stereo not shown) [Example 391, 1-(2-(4-(2-(3,4-dimethoxyphenyl)-3-(tetrahydro-2H-pyran-4-yl)-1H-indol-5-yl)piperidin-1-yl)-2-oxoethyl)-N,N-diethylpiperidine-3-carboxamide], for which the values for the IC50 at human TLR7 and against human TLR9 were 0.626 µM and 5.4 µM, respectively.

For `COc1ccc(-c2[nH]c3ccc(C4CCN(CC(=O)NCCC5CCCN5C)CC4)cc3c2CC(F)(F)F)cc1OC` (stereo not shown) [Example 360, 2-(4-(2-(3,4-dimethoxyphenyl)-3-(2,2,2-trifluoroethyl)-1H-indol-5-yl)piperidin-1-yl)-N-(2-(1-methylpyrrolidin-2-yl)ethyl) acetamide], the results for the IC50 on human TLR7 and against human TLR9 were 0.016 µM and 0.392 µM, respectively.

As to `COc1ccc(-c2[nH]c3ccc(C4CCN(CC(=O)N5CC[C@@H](N(C)C)C5)CC4)cc3c2CC(F)(F)F)cc1OC` [Example 373, (R)-2-(4-(2-(3,4-dimethoxyphenyl)-3-(2,2,2-trifluoroethyl)-1H-indol-5-yl)piperidin-1-yl)-1-(3-(dimethylamino)pyrrolidin-1-yl)ethan-1-one], the results for the IC50 against human TLR7 and on human TLR9 were 0.016 µM and 0.37 µM, respectively.

On to `COc1ccc(-c2[nH]c3ccc(C4CCN(CC(=O)NCCCN5CCCC5=O)CC4)cc3c2CC(F)(F)F)cc1OC` [Example 376, 2-(4-(2-(3,4-dimethoxyphenyl)-3-(2,2,2-trifluoroethyl)-1H-indol-5-yl)piperidin-1-yl)-N-(3-(2-oxopyrrolidin-1-yl)propyl)acetamide], for which the IC50 against human TLR7 is 0.178 µM; against human TLR9, 2.9 µM.

Regarding `COc1ccc(-c2[nH]c3ccc(C4CCN(CC(=O)N5CCN(c6ccncc6)CC5)CC4)cc3c2CC(F)(F)F)cc1OC` [Example 366, 2-(4-(2-(3,4-dimethoxyphenyl)-3-(2,2,2-trifluoroethyl)-1H-indol-5-yl)piperidin-1-yl)-1-(4-(pyridin-4-yl)piperazin-1-yl) ethan-1-one], the IC50 on human TLR7 was 0.004 µM; on human TLR9, 0.141 µM.

`CCN(CCN(C)C)C(=O)CN1CCC(c2ccc3[nH]c(-c4ccc(OC)c(OC)c4)c(CC(F)(F)F)c3c2)CC1` [Example 372, 2-(4-(2-(3,4-dimethoxyphenyl)-3-(2,2,2-trifluoroethyl)-1H-indol-5-yl)piperidin-1-yl)-N-(2-(dimethylamino)ethyl)-N-ethylacetamide]: the figures for the IC50 at human TLR7 and against human TLR9 were 0.013 µM and 0.335 µM, respectively.

As to `COc1ccc(-c2[nH]c3ccc(C4CCN(CC(=O)NCCCCN5CCCC5)CC4)cc3c2CC(F)(F)F)cc1OC` [Example 388, 2-(4-(2-(3,4-dimethoxyphenyl)-3-(2,2,2-trifluoroethyl)-1H-indol-5-yl)piperidin-1-yl)-N-(4-(pyrrolidin-1-yl)butyl)acetamide], the IC50 is 0.009 µM against human TLR7 and 0.288 µM at human TLR9.

In the case of `COc1ccc(-c2[nH]c3ccc(C4CCN(C(=O)CCn5ccc6ccccc65)CC4)cc3c2CC(F)(F)F)cc1OC` [Example 337, 1-(4-(2-(3,4-dimethoxyphenyl)-3-(2,2,2-trifluoroethyl)-1H-indol-5-yl)piperidin-1-yl)-3-(1H-indol-1-yl)propan-1-one], the IC50 at human TLR7 was 3.57 µM; against human TLR9 it was at least 50 µM.

Take `CCc1c(-c2ccc(OC)c(OC)c2)[nH]c2cc(C)c(C3CCNCC3)cc12` [Example 396, 2-(3,4-dimethoxyphenyl)-3-ethyl-6-methyl-5-(piperidin-4-yl)-1H-indole, HCl]: the IC50 at human TLR7 was determined as 0.047 µM; against human TLR9, 3.43 µM.

Turning to `COc1ccc(-c2[nH]c3ccc(C4CCN(C(=O)CCC(=O)N(C)C)CC4)cc3c2CC(F)(F)F)cc1OC` [Example 346, 4-(4-(2-(3,4-dimethoxyphenyl)-3-(2,2,2-trifluoroethyl)-1H-indol-5-yl)piperidin-1-yl)-N,N-dimethyl-4-oxobutanamide], the concentration for half-maximal inhibition (IC50) on human TLR7 amounted to 0.213 µM; at human TLR9, 2.94 µM.

Turning to `COc1ccc(-c2[nH]c3ccc(C4CCN(C(=O)C[C@H](C)O)CC4)cc3c2CC(F)(F)F)cc1OC` [Example 352, (S)-1-(4-(2-(3,4-dimethoxyphenyl)-3-(2,2,2-trifluoroethyl)-1H-indol-5-yl)piperidin-1-yl)-3-hydroxybutan-1-one], the IC50 against human TLR7 is 0.458 µM; against human TLR9, 28.9 µM.

For orientation: IC50 means the midpoint of a concentration-inhibition curve.
